This note sets out measurements from patent US20130028849A1, “Agent For Stimulating The Expression of Loxl” (BASF Beauty Care Solutions France S.A.S., priority 2009, published 2013).

Assay [1] has as its system LOXL. Description: Expression of LOXL gene by quantitative RT-PCR in normal human fibroblasts. It counts as cell-based. The following applies: IL-1b treated fibroblasts, untreated non-irradiated = 1. How it is done: The expression of genes for elastin and LOXL was measured using quantitative RT-PCR under standard culture conditions or after irradiation with increasing doses of UVB or UVA. Their level of expression has been related to the number of cells using the housekeeping gene actin. Expression of the LOXL gene was also followed by quantitative RT-PCR under non-irradiated conditions after application for 24 hours of a Geophila cordifolia extract obtained according to process 1a) at 1%.
(§1) Normal human fibroblasts (NH F) cultivated in a FGM medium (fibroblast growth medium, Promocell) were exposed to a UV stress. A Fisher Bioblock type UVA or UVB source with an electric power of 0.3 mW/cm^2 was used. The UV dose was monitored using a radiometer (VLX 3W) and a CX-312 probe for UVB or a CX-365 probe for UVA. Various UV irradiation conditions were evaluated: For a wavelength of λ=312 nm (UVB) • UVB 5 mJ/cm^2, the exposure time was 30 seconds; • UVB 10 mJ/cm^2, the exposure time was 1 minute;
(§2) Total RNA from the monolayer culture was extracted with the SV96 Total RNA Isolation System® following the manufacturer's instructions. The total RNA was eluted in 100 μl of nuclease-free water and quantified using a spectrophotometer at 260 nm (Molecular Devices Spectramax 190). […]
A quantity of 50 ng of total RNA was amplified by Real Time RT-PCR (Quantitek Sybr Green® kit). […]

For assay [2], the system named is elastin. Description: Expression of elastin gene by quantitative RT-PCR in normal human fibroblasts. The assay is classed as cell-based. To be noted: IL-1b treated fibroblasts, untreated non-irradiated = 1. As for the experimental part: Their level of expression has been related to the number of cells using the housekeeping gene actin. Expression of the LOXL gene was also followed by quantitative RT-PCR under non-irradiated conditions after application for 24 hours of a Geophila cordifolia extract obtained according to process 1a) at 1%.
as §1, §2
A quantity of 50 ng of total RNA was amplified by Real Time RT-PCR (Quantitek Sybr Green® kit). The primers used in the RT-PCR experiments (semi-quantitative or real time) were as follows: […]

In assay [3] the target is MMP-12 (Homo sapiens, UniProt P39900). Description: Anti-MMP activity, kinetic test with thiopeptide substrate, MMP-12. It counts as biochemical. As for the experimental part: (§3) Anti-MMP activity was evaluated on matrix metalloproteases MMP-2 and MMP-12.
(§4) The substrat of MMPs is thiopeptide [Ac-PLG-2mercapto-4-methyl-pentanoyl)-LG-OC2H5] (EnzoLifeSciences, P125-9090). The test is carried out in 96-well plates. Different medium are prepared: A <> containing assay buffer and the substrate—Value obtained with blank was deduced from all other conditions. Positive control, NNGH (EnzoLifeSciences, PI 115-9090), which is metalloproteinase inhibitor, diluted at 1/200 in assay buffer. Untreated control, containing assay buffer, MMP and the substrate: this corresponds to 100% MMP activity.
(§5) Other conditions contain assay buffer, MMP, the substrate and the solution to be tested. After 45 min preincubation at 37° C. (to get interaction between MMP and tested product: tested solution or positive control), substrate is added and plate is immediately placed in Plate reader for kinetic measurement of absorbance at 405 nm (maximum absorbance of coloured product resulting from degradation of substrate by MMP). Full plate is read each minute during 20 minutes. After 20 min, a curve reflecting kinetic evolution of MMPs activity is obtained.
(§6) In the linear phase, the slope of the curve provides with MMP activity. The percentage inhibition was calculated with respect to the untreated control according to the formula:
(§7) Inhibition percentage=100−((slope of tested product/Mean of the untreated control slopes)*100)
(§8) This test was performed on MMP-2 and MMP-12. Tested solution containing Geophila cordifiolia extract was obtained according to example 1c) and tested at different concentration.
(§9) Tests used were performed in the same conditions than above described with Geophila cordifolia. Extract of Geophila repens was obtained according to example 7a) and tested at different concentrations.

In assay [4] the target is T1, MMP-2 (Homo sapiens, UniProt P08253).
T1 sequence (P08253 110-660): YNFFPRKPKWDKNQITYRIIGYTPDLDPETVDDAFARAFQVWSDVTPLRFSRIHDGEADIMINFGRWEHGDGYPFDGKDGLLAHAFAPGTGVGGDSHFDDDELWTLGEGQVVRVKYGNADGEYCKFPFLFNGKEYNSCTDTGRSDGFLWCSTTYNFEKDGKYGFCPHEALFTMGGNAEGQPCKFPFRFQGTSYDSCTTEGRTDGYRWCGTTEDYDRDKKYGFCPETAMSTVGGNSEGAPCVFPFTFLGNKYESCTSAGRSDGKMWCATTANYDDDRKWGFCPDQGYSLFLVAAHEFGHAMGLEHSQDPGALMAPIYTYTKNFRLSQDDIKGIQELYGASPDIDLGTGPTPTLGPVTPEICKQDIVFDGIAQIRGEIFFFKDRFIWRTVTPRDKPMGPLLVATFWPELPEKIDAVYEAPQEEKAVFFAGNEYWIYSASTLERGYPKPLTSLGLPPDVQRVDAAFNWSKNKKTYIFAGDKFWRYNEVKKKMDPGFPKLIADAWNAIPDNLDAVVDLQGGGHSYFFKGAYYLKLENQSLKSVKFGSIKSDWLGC
Description: Anti-MMP activity, kinetic test with thiopeptide substrate, MMP-2. It counts as biochemical. How it is done: as §3, §4, §5, §6, §7, §8, §9

Assay [5] has as its target T2, HLE (Human Leucocyte Elastase) (Homo sapiens, UniProt P08246).
T2 sequence (P08246 30-267): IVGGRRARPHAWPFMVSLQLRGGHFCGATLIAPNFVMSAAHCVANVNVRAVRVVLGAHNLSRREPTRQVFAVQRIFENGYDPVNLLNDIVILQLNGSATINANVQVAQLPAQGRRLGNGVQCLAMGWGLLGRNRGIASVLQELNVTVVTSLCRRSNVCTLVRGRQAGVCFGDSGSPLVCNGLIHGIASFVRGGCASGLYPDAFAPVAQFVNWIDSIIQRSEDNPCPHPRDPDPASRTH
Description: HLE test (anti-elastase activity, cleavage of coloured peptide substrate). The assay is classed as biochemical. As for the experimental part:
The anti-elastase activity was evaluated using HLE (Human Leucocyte Elastase). […] The principle of this test resides in measuring the degree of cleavage of a coloured peptide substrate by HLE.
The tested products were as follows: • the extract of the invention was prepared in accordance with Example 1a) tested at final concentrations of 0.5%, 1%, 2% and 3% (w/w); • a 0.01% (w/w) solution of ursolic acid was used as the positive inhibition control for inhibition; • no solution was used as the negative control (the reaction buffer for the enzyme replaces the tested product).
The percentage inhibition was calculated for each test product with respect to the negative control (=100% activity i.e. 0% inhibition).
as §9

Assay [6] can be described thus: DPPH test (radical scavenger effect). The assay is classed as biochemical. To be noted: for radical scavenging activity (DPPH test), Mean: Example 8 series, in %; for anti-free-radicals effect (% vs negative control): DPPH test.
The nature of assay [7]: Lipid peroxidation test (TBARS assay, UV-induced peroxidation). It counts as biochemical. To be noted: 1% (w/w). How it is done:
The radical scavenger effect was evaluated: • using the standard test with DPPH (1,1-diphenyl-2-picrylhydrazyl) the principle of which is the measurement of the bleaching induced in the presence of anti oxidants; • by the lipid peroxidation method. The TBArs technique means that malondialdehyde (MDA), one of the terminal products formed during the decomposition of polyunsaturated fatty acids mediated by free radicals, can be assayed. It is assayed by condensation in an acidic medium with hot thiobarbituric acid (TBA), thereby forming a pink chromogen which absorbs strongly between 530 and 535 nm. […] The intensity of the colour is directly proportional to the quantity of MDA. The inhibition of UV-induced peroxidation during incorporation of an active agent allows its anti-oxidizing potential to be calculated.
A 5% liposomal suspension was prepared in deionized water. […] A “blank” was also deposited on a non-irradiated control plate for the spectrophotometer reading (water), the non-irradiated positive control measurements and the non-irradiated test measurements (active agent tested at different concentrations). […]
The percentage inhibition was calculated for each test product with respect to the negative control (=100% of generated free radicals meaning 0% anti-free-radicals effect)

Assay [8] has as its system type I collagen. Description: Fluorescent immunostaining of type I collagen on monolayer cultured fibroblasts. It counts as cell-based, human. To be noted: 50 μg/ml. As for the experimental part: Immunofluorescence makes it possible to observe different markers expressed by cells via the use of antibody recognizing these markers. In first step, cells were fixed in cold methanol for 10 minutes. After washing with PBS, antigenic aspecific sites were then blocked for 1 hour with PBS-BSA 1% solution (Bovine serum albumin). Primary antibody diluted at 1% in PBS/BSA 1% was incubated with cells for 1 hour. On the negative control is added IgG control isotope (instead of primary antibody). The excess of anti-body which has not been attached is removed by 2 washings with PBS. Cells were incubated out of light with a solution of secondary antibodies able to recognize primary antibody. This secondary antibody being linked with fluorochrome (Alexa Fluor 488), it makes it possible to see protein with florescent microscopy. Cells were then gently washed 3 times with PBS, and slides covered with mounting medium containing DAPI (Vector®, Vectashield), a nuclear colouring agent. Slides were stored out of light to maintain fluorescence of fluorochrome and analysed with confocal microscopy. Antibodies used in this test were: • primary antibody: collagen 1: rabbit anti-human type I collagen, polyclonal, diluted 1/200 (Novotech 20111) • primary antibody: Isotype IgG1: rabbit IgG1 isotype, ready to use (Zymed Laboratories 08-6199) • secondary antibody: goat anti-rabbit IgG coupled with Alexa fluor 488, polyclonal, diluted 1/1000 (in Vitrogen A11008) Cells used for immunostaining were obtained from fibroblasts from donor […]. Geophila cordifolia obtained according to example 1c) was tested at 1% (diluted in water). Fluorescent Immunostaining of type I collagen on monolayer cultured fibroblasts treated with vegetal extract obtained from example 1c) (magnification 400×, scale bar=25 μm).

Setting [9] is: NNGH diluted at 1/200 in assay buffer.
[10] abbreviates: positive control, Example 8 series.

Several values for one entry are separate records, joined by “and”; a condition that tells them apart may be missing. Equal entries are not always repeated.

MMP-12, sequence (P39900 106-470): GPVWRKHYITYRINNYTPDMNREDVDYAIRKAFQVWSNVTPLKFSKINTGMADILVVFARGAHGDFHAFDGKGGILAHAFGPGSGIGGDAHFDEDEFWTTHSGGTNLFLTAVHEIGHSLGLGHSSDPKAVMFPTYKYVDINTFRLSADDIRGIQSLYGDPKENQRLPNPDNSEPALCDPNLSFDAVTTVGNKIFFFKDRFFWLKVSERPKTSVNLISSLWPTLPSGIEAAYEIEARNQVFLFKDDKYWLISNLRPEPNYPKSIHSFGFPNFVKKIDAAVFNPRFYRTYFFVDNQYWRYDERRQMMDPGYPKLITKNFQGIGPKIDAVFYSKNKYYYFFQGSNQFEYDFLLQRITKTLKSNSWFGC

On to “IL-1b: IL-1b treatment group of fibroblasts in Table 6; not described in the method”, for which the “Gene/actin, LOXL” value in assay [1] (single replicates) is 1.108 and 0.9779 and 1.139 and 1.246. Besides, the “Gene/actin, LOXL, Mean” value in assay [1] was 1.12. Also, the “Gene/actin, ELN” value in assay [2] (single replicates) was 11.02 and 28.48 and 10.07 and 9.393. The “Gene/actin, ELN, Mean” value in assay [2] amounted to 14.74.

As for `COc1ccc(S(=O)(=O)N(CC(=O)NO)CC(C)C)cc1` [NNGH], in assay [3] (setting [9]), the “MMP-12 inhibition, Mean (%)” value was 58.63^+++ %. Besides, in assay [3] (positive control, 1/200), the “inhibition of MMP-12 activity (in words)” value is “strongly and significantly inhibits”. Moreover, the “anti-MMP 12 effect, mean” value in assay [3] (setting [10]) came out at 72.5825. Moreover, the “MMP-2 inhibition, Mean (%)” value in assay [4] (setting [9]) is recorded as 73.43^+++ %. Besides, the “inhibition of MMP-2 activity (in words)” value in assay [4] (positive control, 1/200) is “strongly and significantly inhibits”. In assay [4] (setting [10]), the “anti-MMP2 effect, mean” value came out at 62.51.

For `C[C@H]1[C@H](C)CC[C@]2(C(=O)O)CC[C@]3(C)C(=CC[C@@H]4[C@@]5(C)CC[C@H](O)C(C)(C)[C@@H]5CC[C@]43C)[C@H]12` [Ursolic acid, ursolic acid], the “HLE inhibition (%)” value in assay [5] (0.01% (w/w)) was found to be 85%. Moreover, the “anti-elastase activity (HLE test), mean” value in assay [5] (0.01%, Example 8 series) amounted to 90.47.

With `N[C@@H](CS)C(=O)O` [Cysteine, cysteine], in assay [6] (2.5 mg/l), the “radical scavenging activity (DPPH test), Mean” value was found to be 68.52 and the “anti-free-radicals effect (% vs negative control)” value was 47.6%. Also, in assay [6] (5 mg/l), the “radical scavenging activity (DPPH test), Mean” value came out at 79.49 and the “anti-free-radicals effect (% vs negative control)” value was 83.1%.

On to vitamin E, for which, in assay [7], the “anti-free-radicals effect (% vs negative control)” value is on record as 54.7%.

Turning to `O=C1O[C@H]([C@@H](O)CO)C(O)=C1O` [vitamin C], the “anisotropy of collagen type I fibres” value in assay [8] (day 3) was “high anisotropy”; in assay [8] (day 5), “anisotropy is increased”. The “type I collagen labelling” value was “a fibrillar labelling, being more external to the cell” in assay [8] (day 3); “labelling is not so intense and fibres are more oriented in one way and thinner” in assay [8] (day 5).
